According to patent publication US8703963B2, “Derivative N-thiolated 2-oxazolidinone antibiotics” (University of South Florida, priority 2005, dated 2014):
Marks after values point to notes of the source that are not given here.

How the values were obtained:
MRSA USF652 = test: Kirby-Bauer agar disk diffusion; details: 20 μg on 6 mm disk, 24 h at 37° C., triplicate
MRSA USF657 = test: Kirby-Bauer agar disk diffusion; details: 20 μg on 6 mm disk, 24 h at 37° C., triplicate
MRSA USF655 = test: Kirby-Bauer agar disk diffusion; details: 20 μg on 6 mm disk, 24 h at 37° C., triplicate
MRSA USF659 = test: Kirby-Bauer agar disk diffusion; details: 20 μg on 6 mm disk, 24 h at 37° C., triplicate
MRSA USF656 = test: Kirby-Bauer agar disk diffusion; details: 20 μg on 6 mm disk, 24 h at 37° C., triplicate
MRSA USF653 = test: Kirby-Bauer agar disk diffusion; details: 20 μg on 6 mm disk, 24 h at 37° C., triplicate
MRSA USF658 = test: Kirby-Bauer agar disk diffusion; details: 20 μg on 6 mm disk, 24 h at 37° C., triplicate
MRSA USF654 = test: Kirby-Bauer agar disk diffusion; details: 20 μg on 6 mm disk, 24 h at 37° C., triplicate
[1] = test system: S. aureus 849 (ATCC 25923); test: Kirby-Bauer agar disk diffusion; details: for zone of growth inhibition, average diameter: S. aureus 849 (ATCC 25923), 20 μg on 6 mm disk, 24 h at 37° C., triplicate; for S. aureus (Inhibition), median zone of inhibition: S. Aureaus strain 849, c = partial inhibition within this diameter
MRSA USF919 (ATCC 43300) = test: Kirby-Bauer agar disk diffusion; details: 20 μg on 6 mm disk, 24 h at 37° C., triplicate
MRSA USF920 (ATCC 33591) = test: Kirby-Bauer agar disk diffusion; details: 20 μg on 6 mm disk, 24 h at 37° C., triplicate
B. subtilus = test: Kirby-Bauer agar disk diffusion; type: cell-based; details: 20 μg on 6 mm disk, 24 h at 37° C., triplicate
B. thurigensis = test: Kirby-Bauer agar disk diffusion; type: cell-based; details: 20 μg on 6 mm disk, 24 h at 37° C., triplicate
B. coagulans = test: Kirby-Bauer agar disk diffusion; type: cell-based; details: 20 μg on 6 mm disk, 24 h at 37° C., triplicate
[2] = test system: Bacillus anthracis (Sterne strain); type: cell-based; details: B. anthracis (Sterne strain); 20 μg on 6 mm disk; 24 h at 37° C.; triplicate
B. megaterium = test: Kirby-Bauer agar disk diffusion; type: cell-based; details: 20 μg on 6 mm disk, 24 h at 37° C., triplicate
B. cereus = test: Kirby-Bauer agar disk diffusion; type: cell-based; details: 20 μg on 6 mm disk, 24 h at 37° C., triplicate
B. globigii = test: Kirby-Bauer agar disk diffusion; type: cell-based; details: 20 μg on 6 mm disk, 24 h at 37° C., triplicate
S. aureus = test: Broth MIC; type: cell-based, Staphylococcus aureus
MRSA = test: Broth MIC; type: cell-based, Staphylococcus aureus
[3] = test system: 10 strains of MRSA (652-659, 919-920); test: Kirby-Bauer zones of inhibition, 10 strains of MRSA; details: for MRSA (inhibition), median diameter of zone of inhibition: median of 10 strains of MRSA (652-659, 919-920), c = partial inhibition within this diameter

COC1C(=O)N(SC)C1c1ccccc1 (racemic) [Lac, reference compound]
zone of growth inhibition, average diameter (MRSA USF652): 30 mm | zone of growth inhibition, average diameter (MRSA USF657): 27 mm | zone of growth inhibition, average diameter (MRSA USF655): 25 mm | zone of growth inhibition, average diameter (MRSA USF659): 24 mm | zone of growth inhibition, average diameter (MRSA USF656): 28 mm | zone of growth inhibition, average diameter (MRSA USF653): 30 mm | zone of growth inhibition, average diameter (MRSA USF658): 26 mm | zone of growth inhibition, average diameter (MRSA USF654): 26 mm | zone of growth inhibition, average diameter [1]: 25 mm

CC1(C)S[C@@H]2[C@H](NC(=O)Cc3ccccc3)C(=O)N2[C@H]1C(=O)O [Pen G, penicillin G, reference compound]
zone of growth inhibition, average diameter (MRSA USF652): 8 mm | zone of growth inhibition, average diameter (MRSA USF657): 12 mm | zone of growth inhibition, average diameter (MRSA USF655): 14 mm | zone of growth inhibition, average diameter (MRSA USF659): 16 mm | zone of growth inhibition, average diameter (MRSA USF656): 12 mm | zone of growth inhibition, average diameter (MRSA USF653): 15 mm | zone of growth inhibition, average diameter (MRSA USF658): 19 mm | zone of growth inhibition, average diameter (MRSA USF654): 10 mm | zone of growth inhibition, average diameter [1]: 33 mm

CCC(C)SN1CC(CCl)OC1=O (stereo not drawn) [compound 5]
zone of growth inhibition, average diameter (MRSA USF652): 19 mm | zone of growth inhibition, average diameter (MRSA USF657): 22 mm | zone of growth inhibition, average diameter (MRSA USF655): 22 mm | zone of growth inhibition, average diameter (MRSA USF919 (ATCC 43300)): 19 mm | zone of growth inhibition, average diameter (MRSA USF659): 20 mm | zone of growth inhibition, average diameter (MRSA USF920 (ATCC 33591)): 19 mm | zone of growth inhibition, average diameter (MRSA USF656): 20 mm | zone of growth inhibition, average diameter (MRSA USF653): 20 mm | zone of growth inhibition, average diameter (MRSA USF658): 21 mm | zone of growth inhibition, average diameter (MRSA USF654): 22 mm | zone of growth inhibition, average diameter [1]: 19 mm

CSN1C(=O)OC[C@@H]1c1ccccc1 [compound 6]
zone of growth inhibition, average diameter (MRSA USF652): 30 mm | zone of growth inhibition, average diameter (B. subtilus): 19 mm | zone of growth inhibition, average diameter (B. thurigensis): 17 mm | zone of growth inhibition, average diameter (B. coagulans): 17 mm | zone of growth inhibition, average diameter (MRSA USF657): 29 mm | zone of growth inhibition, average diameter (MRSA USF655): 29 mm | zone of growth inhibition, average diameter (MRSA USF919 (ATCC 43300)): 30 mm | zone of growth inhibition, average diameter (MRSA USF659): 26 mm | zone of growth inhibition, average diameter (MRSA USF920 (ATCC 33591)): 28 mm | zone of growth inhibition, average diameter [2]: 23 mm | zone of growth inhibition, average diameter (B. megaterium): 18 mm | zone of growth inhibition, average diameter (MRSA USF656): 31 mm | zone of growth inhibition, average diameter (B. cereus): 24 mm | zone of growth inhibition, average diameter (MRSA USF653): 31 mm | zone of growth inhibition, average diameter (MRSA USF658): 29 mm | zone of growth inhibition, average diameter (MRSA USF654): 29 mm | zone of growth inhibition, average diameter (B. globigii): 15 mm | zone of growth inhibition, average diameter [1]: 30 mm

CSN1C(=O)OC[C@H]1c1ccccc1 [compound 7]
zone of growth inhibition, average diameter (MRSA USF652): 30 mm | zone of growth inhibition, average diameter (B. subtilus): 19 mm | zone of growth inhibition, average diameter (B. thurigensis): 15 mm | zone of growth inhibition, average diameter (B. coagulans): 17 mm | zone of growth inhibition, average diameter (MRSA USF657): 27 mm | broth MIC value (S. aureus): 8 µg/mL | zone of growth inhibition, average diameter (MRSA USF655): 28 mm | zone of growth inhibition, average diameter (MRSA USF919 (ATCC 43300)): 28 mm | zone of growth inhibition, average diameter (MRSA USF659): 26 mm | zone of growth inhibition, average diameter (MRSA USF920 (ATCC 33591)): 28 mm | zone of growth inhibition, average diameter [2]: 23 mm | zone of growth inhibition, average diameter (B. megaterium): 20 mm | broth MIC value (MRSA): 8 µg/mL | zone of growth inhibition, average diameter (MRSA USF656): 28 mm | zone of growth inhibition, average diameter (B. cereus): 23 mm | zone of growth inhibition, average diameter (MRSA USF653): 30 mm | zone of growth inhibition, average diameter (MRSA USF658): 27 mm | zone of growth inhibition, average diameter (MRSA USF654): 26 mm | zone of growth inhibition, average diameter (B. globigii): 17 mm | zone of growth inhibition, average diameter [1]: 29 mm

CSN1C(=O)OC[C@@H]1C(C)C [compound 8]
zone of growth inhibition, average diameter (MRSA USF652): 19 mm | zone of growth inhibition, average diameter (B. subtilus): 17 mm | zone of growth inhibition, average diameter (B. thurigensis): 16 mm | zone of growth inhibition, average diameter (B. coagulans): 17 mm | zone of growth inhibition, average diameter (MRSA USF657): 22 mm | broth MIC value (S. aureus): 16 µg/mL | zone of growth inhibition, average diameter (MRSA USF655): 22 mm | zone of growth inhibition, average diameter (MRSA USF919 (ATCC 43300)): 21 mm | zone of growth inhibition, average diameter (MRSA USF659): 22 mm | zone of growth inhibition, average diameter (MRSA USF920 (ATCC 33591)): 18 mm | zone of growth inhibition, average diameter [2]: 23 mm | zone of growth inhibition, average diameter (B. megaterium): 18 mm | broth MIC value (MRSA): 16 µg/mL | zone of growth inhibition, average diameter (MRSA USF656): 22 mm | zone of growth inhibition, average diameter (B. cereus): 22 mm | zone of growth inhibition, average diameter (MRSA USF653): 27 mm | zone of growth inhibition, average diameter (MRSA USF658): 16 mm | zone of growth inhibition, average diameter (MRSA USF654): 23 mm | zone of growth inhibition, average diameter (B. globigii): 15 mm | zone of growth inhibition, average diameter [1]: 20 mm

CSN1C(=O)OC[C@H]1C(C)C [compound 9]
zone of growth inhibition, average diameter (MRSA USF652): 12 mm | zone of growth inhibition, average diameter (B. subtilus): 19 mm | zone of growth inhibition, average diameter (B. thurigensis): 0 mm | zone of growth inhibition, average diameter (B. coagulans): 0 mm | zone of growth inhibition, average diameter (MRSA USF657): 19 mm | zone of growth inhibition, average diameter (MRSA USF655): 18 mm | zone of growth inhibition, average diameter (MRSA USF919 (ATCC 43300)): 13 mm | clarity of growth inhibition zones ([3]; Kirby-Bauer, anti-MRSA, compared with S-stereoisomer 8): incomplete growth inhibition | zone of growth inhibition, average diameter (MRSA USF659): 22 mm | zone of growth inhibition, average diameter (MRSA USF920 (ATCC 33591)): 15 mm | zone of growth inhibition, average diameter [2]: 15 mm | zone of growth inhibition, average diameter (B. megaterium): 10 mm | zone of growth inhibition, average diameter (MRSA USF656): 20 mm | zone of growth inhibition, average diameter (B. cereus): 15 mm | zone of growth inhibition, average diameter (MRSA USF653): 25 mm | zone of growth inhibition, average diameter (MRSA USF658): 19 mm | zone of growth inhibition, average diameter (MRSA USF654): 20 mm | zone of growth inhibition, average diameter (B. globigii): 17 mm | zone of growth inhibition, average diameter [1]: 21 mm

CSN1C(=O)OC[C@@H]1c1ccccc1 [oxazolidinone 6, 4S-(+)-N-methylthio-4-phenyl-2-oxazolidinone]
MRSA (inhibition), median diameter of zone of inhibition [3]: 29 mm | S. aureus (Inhibition), median zone of inhibition [1]: 30 mm

CSN1C(=O)OC[C@H]1c1ccccc1 [oxazolidinone 7, 4R-(−)-N-methylthio-4-phenyl-2-oxazolidinone]
MRSA (inhibition), median diameter of zone of inhibition [3]: 28 mm | S. aureus (Inhibition), median zone of inhibition [1]: 29 mm

CSN1C(=O)OC[C@@H]1C(C)C [oxazolidinone 8]
MRSA (inhibition), median diameter of zone of inhibition [3]: 16^c mm | S. aureus (Inhibition), median zone of inhibition [1]: 20^c mm

CSN1C(=O)OC[C@H]1C(C)C [oxazolidinone 9, 4R-(+)-N-methylthio-4-isopropyl-2-oxazolidinone]
MRSA (inhibition), median diameter of zone of inhibition [3]: 19^c mm | S. aureus (Inhibition), median zone of inhibition [1]: 21^c mm
